Measured values from ChEMBL document CHEMBL5252555, “Antimicrobial Polyketides from the Marine-Derived Fungus Spiromastix sp. SCSIO F190” (J Nat Prod, 2023).
Converted amounts (≈) assume the structure as drawn.

Experiments:
Format in all cases: functional
Enterococcus faecium [1] = assay: Antibacterial activity against Enterococcus faecium 36711 assessed as inhibition of bacterial growth incubated for 18 hrs by broth microdilution method
Micrococcus luteus = assay: Antibacterial activity against Micrococcus luteus ML01 assessed as inhibition of bacterial growth incubated for 18 hrs by broth microdilution method
Staphylococcus aureus [2] = assay: Antibacterial activity against Staphylococcus aureus 3090 assessed as inhibition of bacterial growth incubated for 18 hrs by broth microdilution method
Staphylococcus aureus [3] = assay: Antibacterial activity against Staphylococcus aureus 16339 assessed as inhibition of bacterial growth incubated for 18 hrs by broth microdilution method
Enterococcus faecalis [4] = assay: Antibacterial activity against Enterococcus faecalis ATCC 29212 assessed as inhibition of bacterial growth incubated for 18 hrs by broth microdilution method
Staphylococcus aureus [5] = assay: Antibacterial activity against Staphylococcus aureus GDE4P037P assessed as inhibition of bacterial growth incubated for 18 hrs by broth microdilution method
Enterococcus faecium [6] = assay: Antibacterial activity against Enterococcus faecium 35682 assessed as inhibition of bacterial growth incubated for 18 hrs by broth microdilution method
Staphylococcus aureus [7] = assay: Antibacterial activity against Staphylococcus aureus 745324 assessed as inhibition of bacterial growth incubated for 18 hrs by broth microdilution method
Staphylococcus aureus [8] = assay: Antibacterial activity against Staphylococcus aureus 669 assessed as inhibition of bacterial growth incubated for 18 hrs by broth microdilution method
Enterococcus faecium [9] = assay: Antibacterial activity against Enterococcus faecium 36235 assessed as inhibition of bacterial growth incubated for 18 hrs by broth microdilution method
Staphylococcus aureus [10] = assay: Antibacterial activity against Staphylococcus aureus 6917 assessed as inhibition of bacterial growth incubated for 18 hrs by broth microdilution method
Staphylococcus aureus [11] = assay: Antibacterial activity against Staphylococcus aureus 1862 assessed as inhibition of bacterial growth incubated for 18 hrs by broth microdilution method
Enterococcus faecalis [12] = assay: Antibacterial activity against Enterococcus faecalis 36950 assessed as inhibition of bacterial growth incubated for 18 hrs by broth microdilution method
Enterococcus gallinarum = assay: Antibacterial activity against Enterococcus gallinarum 5F52C assessed as inhibition of bacterial growth incubated for 18 hrs by broth microdilution method
Staphylococcus aureus [13] = assay: Antibacterial activity against Staphylococcus aureus 718306 assessed as inhibition of bacterial growth incubated for 18 hrs by broth microdilution method
Bacillus subtilis = assay: Antibacterial activity against Bacillus subtilis BS01 assessed as inhibition of bacterial growth incubated for 18 hrs by broth microdilution method
Staphylococcus simulans = assay: Antibacterial activity against Staphylococcus simulans AKA1 assessed as inhibition of bacterial growth incubated for 18 hrs by broth microdilution method
Staphylococcus aureus [14] = assay: Antibacterial activity against methicillin-resistant Staphylococcus aureus assessed as inhibition of bacterial growth incubated for 18 hrs by broth microdilution method
Staphylococcus aureus [15] = assay: Antibacterial activity against Staphylococcus aureus 16162 assessed as inhibition of bacterial growth incubated for 18 hrs by broth microdilution method
Staphylococcus aureus [16] = assay: Antibacterial activity against Staphylococcus aureus 991 assessed as inhibition of bacterial growth incubated for 18 hrs by broth microdilution method
Staphylococcus aureus [17] = assay: Antibacterial activity against Staphylococcus aureus ATCC 29213 assessed as inhibition of bacterial growth incubated for 18 hrs by broth microdilution method

Compound | MIC (Enterococcus faecium [1]) [µg/mL] | MIC (Micrococcus luteus) [µg/mL] | MIC (Staphylococcus aureus [2]) [µg/mL] | MIC (Staphylococcus aureus [3]) [µg/mL] | MIC (Enterococcus faecalis [4]) [µg/mL] | MIC (Staphylococcus aureus [5]) [µg/mL] | MIC (Enterococcus faecium [6]) [µg/mL] | MIC (Staphylococcus aureus [7]) [µg/mL] | MIC (Staphylococcus aureus [8]) [µg/mL] | MIC (Enterococcus faecium [9]) [µg/mL] | MIC (Staphylococcus aureus [10]) [µg/mL] | MIC (Staphylococcus aureus [11]) [µg/mL] | MIC (Enterococcus faecalis [12]) [µg/mL] | MIC (Enterococcus gallinarum) [µg/mL] | MIC (Staphylococcus aureus [13]) [µg/mL] | MIC (Bacillus subtilis) [µg/mL] | MIC (Staphylococcus simulans) [µg/mL] | MIC (Staphylococcus aureus [14]) [µg/mL] | MIC (Staphylococcus aureus [16]) [µg/mL] | MIC (Staphylococcus aureus [17]) [µg/mL] | also measured
CCCc1c(Cl)c(O)cc2c1Oc1cc(O)c(Cl)c(CCC)c1C(=O)O2 | 16 (≈ 40.3 µM) | 8 (≈ 20.1 µM) | 4 (≈ 10.1 µM) | 4 (≈ 10.1 µM) | 8 (≈ 20.1 µM) | 8 (≈ 20.1 µM) | 32 (≈ 80.6 µM) | 4 (≈ 10.1 µM) | 2 (≈ 5.03 µM) | 16 (≈ 40.3 µM) | 8 (≈ 20.1 µM) | 4 (≈ 10.1 µM) | 2 (≈ 5.03 µM) | 8 (≈ 20.1 µM) | 8 (≈ 20.1 µM) | 1 (≈ 2.52 µM) | 4 (≈ 10.1 µM) | 4 (≈ 10.1 µM) | 2 (≈ 5.03 µM) | 4 (≈ 10.1 µM) | MIC (Staphylococcus aureus [15]): 4 µg/mL (≈ 10.1 µM)
CCCc1c(Cl)c(OC)c(Cl)c2c1Oc1c(Cl)c(O)c(Cl)c(CCC)c1C(=O)O2 | 2 (≈ 4.17 µM) | 0.5 (≈ 1.04 µM) | 1 (≈ 2.08 µM) | 1 (≈ 2.08 µM) | 1 (≈ 2.08 µM) | 2 (≈ 4.17 µM) | 2 (≈ 4.17 µM) | 2 (≈ 4.17 µM) | 1 (≈ 2.08 µM) | 2 (≈ 4.17 µM) | 2 (≈ 4.17 µM) | 1 (≈ 2.08 µM) | 0.25 (≈ 0.521 µM) | 1 (≈ 2.08 µM) | 2 (≈ 4.17 µM) | 0.125 (≈ 0.26 µM) | 0.25 (≈ 0.521 µM) | 1 (≈ 2.08 µM) | 1 (≈ 2.08 µM) | 4 (≈ 8.33 µM) | MIC (Staphylococcus aureus [15]): 1 µg/mL (≈ 2.08 µM)
CCCc1c(Cl)c(OC)cc2c1Oc1c(Cl)c(O)c(Cl)c(CCC)c1C(=O)O2 | 2 (≈ 4.49 µM) | 1 (≈ 2.24 µM) | 2 (≈ 4.49 µM) | 2 (≈ 4.49 µM) | 2 (≈ 4.49 µM) | 4 (≈ 8.97 µM) | 8 (≈ 17.9 µM) | 4 (≈ 8.97 µM) | 4 (≈ 8.97 µM) | 4 (≈ 8.97 µM) | 4 (≈ 8.97 µM) | 2 (≈ 4.49 µM) | 0.5 (≈ 1.12 µM) | 2 (≈ 4.49 µM) | 2 (≈ 4.49 µM) | 0.5 (≈ 1.12 µM) | 0.5 (≈ 1.12 µM) | 2 (≈ 4.49 µM) | 2 (≈ 4.49 µM) | 4 (≈ 8.97 µM) | MIC (Staphylococcus aureus [15]): 2 µg/mL (≈ 4.49 µM)
CN[C@H](CC(C)C)C(=O)N[C@H]1C(=O)N[C@@H](CC(N)=O)C(=O)N[C@H]2C(=O)N[C@H]3C(=O)N[C@H](C(=O)N[C@H](C(=O)O)c4cc(O)cc(O)c4-c4cc3ccc4O)[C@H](O)c3ccc(c(Cl)c3)Oc3cc2cc(c3O[C@@H]2O[C@H](CO)[C@@H](O)[C@H](O)[C@H]2O[C@H]2C[C@](C)(N)[C@H](O)[C@H](C)O2)Oc2ccc(cc2Cl)[C@H]1O [VANCOMYCIN] | > 64 | 0.13 (≈ 0.0897 µM) | – | – | 2 (≈ 1.38 µM) | – | > 64 | – | – | > 64 | – | – | 0.5 (≈ 0.345 µM) | 4 (≈ 2.76 µM) | – | 0.125 (≈ 0.0863 µM) | 0.5 (≈ 0.345 µM) | – | – | – | –
CCCc1c(Cl)c(O)c(Cl)c2c1Oc1c(Cl)c(O)c(Cl)c(CCC)c1C(=O)O2 | 4 (≈ 8.58 µM) | 2 (≈ 4.29 µM) | 4 (≈ 8.58 µM) | 2 (≈ 4.29 µM) | 2 (≈ 4.29 µM) | 2 (≈ 4.29 µM) | 4 (≈ 8.58 µM) | 4 (≈ 8.58 µM) | 2 (≈ 4.29 µM) | 8 (≈ 17.2 µM) | 8 (≈ 17.2 µM) | 2 (≈ 4.29 µM) | 1 (≈ 2.15 µM) | 2 (≈ 4.29 µM) | 4 (≈ 8.58 µM) | 0.25 (≈ 0.536 µM) | 2 (≈ 4.29 µM) | 2 (≈ 4.29 µM) | 2 (≈ 4.29 µM) | 2 (≈ 4.29 µM) | MIC (Staphylococcus aureus [15]): 4 µg/mL (≈ 8.58 µM)
CCCc1c(Cl)c(OC)c(Cl)c2c1OC(=O)c1c(CCC)c(Cl)c(O)c(Cl)c1O2 | 4 (≈ 8.33 µM) | 1 (≈ 2.08 µM) | 8 (≈ 16.7 µM) | 8 (≈ 16.7 µM) | 16 (≈ 33.3 µM) | 4 (≈ 8.33 µM) | 8 (≈ 16.7 µM) | 8 (≈ 16.7 µM) | 8 (≈ 16.7 µM) | 4 (≈ 8.33 µM) | 4 (≈ 8.33 µM) | 8 (≈ 16.7 µM) | 2 (≈ 4.17 µM) | 2 (≈ 4.17 µM) | 16 (≈ 33.3 µM) | 0.5 (≈ 1.04 µM) | 1 (≈ 2.08 µM) | 8 (≈ 16.7 µM) | 16 (≈ 33.3 µM) | 32 (≈ 66.6 µM) | MIC (Staphylococcus aureus [15]): 8 µg/mL (≈ 16.7 µM)
CCCc1c(O)c(Oc2c(Cl)c(O)c(Cl)c(CCC)c2C(=O)OC)c(Cl)c(OC)c1Cl | 8 (≈ 15.6 µM) | 4 (≈ 7.81 µM) | 8 (≈ 15.6 µM) | 8 (≈ 15.6 µM) | 16 (≈ 31.2 µM) | 16 (≈ 31.2 µM) | 16 (≈ 31.2 µM) | 8 (≈ 15.6 µM) | 8 (≈ 15.6 µM) | 8 (≈ 15.6 µM) | 8 (≈ 15.6 µM) | 8 (≈ 15.6 µM) | 4 (≈ 7.81 µM) | 4 (≈ 7.81 µM) | 16 (≈ 31.2 µM) | 4 (≈ 7.81 µM) | 4 (≈ 7.81 µM) | 8 (≈ 15.6 µM) | 8 (≈ 15.6 µM) | 8 (≈ 15.6 µM) | MIC (Staphylococcus aureus [15]): 8 µg/mL (≈ 15.6 µM)
CC1(C)S[C@@H]2[C@H](NC(=O)[C@H](N)c3ccccc3)C(=O)N2[C@H]1C(=O)O [AMPICILLIN] | > 64 | 0.13 (≈ 0.372 µM) | – | 64 (≈ 183 µM) | 1 (≈ 2.86 µM) | – | > 64 | 4 (≈ 11.4 µM) | 8 (≈ 22.9 µM) | > 64 | 64 (≈ 183 µM) | 4 (≈ 11.4 µM) | – | 8 (≈ 22.9 µM) | > 64 | 0.125 (≈ 0.358 µM) | > 64 | 32 (≈ 91.6 µM) | 4 (≈ 11.4 µM) | 1 (≈ 2.86 µM) | –
COc1c(Cl)c(O)c(Cl)c2c1C(=O)O[C@H](C)C2 | > 128 | > 128 | > 128 | > 128 | > 128 | > 128 | > 128 | > 128 | > 128 | > 128 | > 128 | > 128 | > 128 | > 128 | > 128 | > 128 | > 128 | > 128 | > 128 | > 128 | MIC (Staphylococcus aureus [15]): > 128 µg/mL
